The values below come from patent publication US20090099218A1, “SYNTHESIS OF NOVEL TUBULIN POLYMERIZATION INHIBITORS: BENZOYLPHENYLUREA (BPU) SULFUR ANALOGS” (priority 2007, published 2009).

In one experiment the test system is LnCaP. The experiment is described as follows: MTT growth inhibition, prostate cancer cell line LnCaP. It is filed as cell-based, human. The conditions noted are these: MTT assay; average of three independent experiments. Here is the method: (§1) This MTT assay was carried using human prostate cancer cell lines CWR22R, LAPC-4 and LnCap using Promega cell titer 96 nonradioactive cell proliferation kits. Cells were trypsinized and centrifuged at 1000 rpm for 5 minutes and the supernatant was aspirated. Cells were resuspended with HBSS to a concentration of 10^6/ml. Cell suspension was diluted in serum containing medium to plate 2000 cells/well/0.2 ml. Cell suspension was transferred to sterile solution basin. Cells were plated using multichannel pipette set at 200 μl and incubated overnight for attachment. One plate was prepared for day 0 MTT assay as follows: 100 μl of media was removed from each well using multichannel pipette and 15 μl of MTT reagent was added. Plates were incubated at 37° C. for 4 hrs. […] of STOP solution was added to each well and incubated at room temperature for 1 hour. Absorbance was measured at 570 and 650 nm on plate reader. All the media from the remaining plates were carefully removed and the cells were treated with the media containing drug. MTT assays were done on days 0, 3, 5 and 7. In the preliminary screening […] BPU sulfur analogs 6l, 6h, 6n, 7d and 8h were screened and their activity was compared with compound 1.
(§2) Compounds with significant inhibitory activity in pancreatic cancer cells were further evaluated against prostate cancer cell lines in the MTT assay, (Mosmann, T., J. Immunol. Methods 65:55-63 (1983)) and the results were compared to those for compound 1 (Table 3).
Background: Formazan colour is commonly taken as a measure of viable cells.

The subject of a further experiment is Panc1005. Kind of experiment: MTT growth inhibition, pancreatic cell line Panc1005. The settings on record: MTT assay, 96 h treatment; average of three independent experiments. It is filed as cell-based. Here is the method: (§3) Eight of these analogs 6d, 6h, 6n, 6g, 7b, 7d, 8g, and 8h were tested for their cytotoxicity in seven pancreatic cell lines ASPC1, Panc1, Panc203, Panc430, Pane 1005, MiaPaca2, and HS766T using MTT assay. Cells were trypsinized, seeded at 5×10^3 cells/well in 96-well plate and allowed to grow for 24 hours before the treatment with exponential increasing concentrations of drugs in the presence of 10% FBS. After a 96-hours period of treatment, 20 μl of MTT solution (5 mg/ml in PBS) were added to each well, and the plates were then incubated for 3 hours at 37° C. Medium was then replaced with 100 μl of DMSO per well. Plates were shaken and the optical density was measured at 570 nm using a multiwell plate reader (Bio-Rad, Model 550, Bio-Rad Inc., Hercules, Calif.). Each experiment was performed in triplicate for each drug concentration and was carried out independently at least 3 times. The IC50 value was defined as the concentration needed for a 50% reduction in the absorbance calculated based on the survival curves. Response to drug treatment was assessed by standardizing treatment groups to untreated controls. Compounds activity was compared with compound 1.
(§4) Table 2 (Growth Inhibition of Pancreatic Cancer Cell Lines by BPU and BPTU Analogues (IC50) a) compares the cytotoxicity of a series of new derivatives against a panel of seven pancreatic cancer cell lines, as determined by MTT assay. See, Mosmann, T., J. Immunol. Methods 65:55-63 (1983).

The test system of experiment [1] is tubulin. The experiment is described as follows: Inhibition of [3H]colchicine binding. The conditions noted are these: Tubulin 1 μM; [3H]colchicine and inhibitor at 5 μM.
The next experiment relates to ASPC1. The experiment is described as follows: MTT growth inhibition, pancreatic cell line ASPC1. It is filed as cell-based. The conditions noted are these: MTT assay, 96 h treatment; average of three independent experiments. The protocol: as §3, §4
The test system of the next experiment is CWR22R. The experiment is described as follows: MTT growth inhibition, prostate cancer cell line CWR22R. The conditions noted are these: MTT assay; average of three independent experiments. It is filed as cell-based, human.
The test system of a further experiment is Miapaca2. Kind of experiment: MTT growth inhibition, pancreatic cell line Miapaca2. It counts as cell-based. The conditions noted are these: MTT assay, 96 h treatment; average of three independent experiments. The protocol: as §3, §4
The subject of the next experiment is HS766. Kind of experiment: MTT growth inhibition, pancreatic cell line HS766. It counts as cell-based. The conditions noted are these: MTT assay, 96 h treatment; average of three independent experiments. The protocol: as §3, §4
In the next experiment the test system is Panc1. Kind of experiment: MTT growth inhibition, pancreatic cell line Panc1. It counts as cell-based. The settings on record: MTT assay, 96 h treatment; average of three independent experiments. Here is the method:
as §3, §4

The test system of experiment [2] is tubulin. The experiment is described as follows: Inhibition of tubulin polymerization. The conditions noted are these: Tubulin was at 10 μM; read-out: tubulin IC50 ± SD (inhibition of tubulin polymerization). It counts as biochemical. The protocol:
Briefly, tubulin polymerization was followed turbidimetrically at 350 nm in Beckman model DU7400 and DU7500 recording spectrophotometers equipped with electronic temperature controllers. […] Samples were pre-incubated for 15 min at 30° C. and chilled on ice. GTP (final concentration, 0.4 mmol/L) was added to each reaction mixture, and these were placed in cuvettes held at 0° C. Baselines were established, the temperature was raised to 30° C.

The subject of the next experiment is Panc430. The experiment is described as follows: MTT growth inhibition, pancreatic cell line Panc430. It counts as cell-based. The conditions noted are these: MTT assay, 96 h treatment; average of three independent experiments. Here is the method: as §3, §4
In the next experiment the test system is Panc203. The experiment is described as follows: MTT growth inhibition, pancreatic cell line Panc203. It is filed as cell-based. The settings on record: MTT assay, 96 h treatment; average of three independent experiments. The protocol:
as §3, §4

A further experiment deals with LAPC-4. Kind of experiment: MTT growth inhibition, prostate cancer cell line LAPC-4. It is filed as cell-based, human. The conditions noted are these: MTT assay; average of three independent experiments. The protocol:
as §1, §2

In general, IC50 refers to the concentration that inhibits the measured activity by half. Turning to `O=C(NC(=O)c1ccccc1[N+](=O)[O-])Nc1ccc(Oc2nccc(Br)n2)cc1` [Compound 6m], the IC50 in the experiment with LnCaP is 1000 nM; with Panc1005, above 10000 nM; with ASPC1, 770 nM; with CWR22R, 5000 nM; in the experiment on Miapaca2, 740 nM; with HS766, 470 nM. Also, the IC50 was 680 nM with Panc1; 4700 nM with tubulin [2]; 10000 nM in the experiment with Panc430; above 10000 nM with Panc203; 200 nM in the experiment on LAPC-4. In addition, in the experiment on tubulin [1], the “colchicine binding (% ± SD), inhibition of [3H]colchicine binding” value was 21 ± 5%.
Consider `COc1cc([C@@H]2c3cc4c(cc3[C@H](O)[C@H]3COC(=O)[C@H]23)OCO4)cc(OC)c1OC` [podophyllotoxin, reference compound], for which, in the experiment with tubulin [1], the “colchicine binding (% ± SD), inhibition of [3H]colchicine binding” value is recorded as 77 ± 8%.
